“And” between values parts separate entries of the source, which are not always exact repeats. Equal entries are not always repeated. Toxic doses and inconclusive results are not listed.
Tested on: BDF1 mice, P388 leukemia ip, median survival T/C
Experiment: NCI In Vivo Anticancer Drug Screen. Data for tumor model P388 Leukemia (intraperitoneal) in B6D2F1 (BDF1) mice
Conditions: endpoint: median survival time, higher = longer survival
Summary of the method: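 Survival ratio, drug arm over vehicle arm, in mice with a transplanted tumour.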

[1] = dose: 100.0 mg/kg/injection, schedule: Q01DX001 (ip), vehicle: Klucel (hydroxypropylcellulose) (HPC)
[2] = dose: 50.0 mg/kg/injection, schedule: Q01DX009 (ip), vehicle: saline with Tween-80
[3] = dose: 100.0 mg/kg/injection, schedule: Q01DX009 (ip), vehicle: saline with Tween-80
[4] = dose: 200.0 mg/kg/injection, schedule: Q01DX009 (ip), vehicle: saline with Tween-80
[5] = dose: 100.0 mg/kg/injection, schedule: Q04DX003 (ip), vehicle: Klucel (hydroxypropylcellulose) (HPC)
[6] = dose: 200.0 mg/kg/injection, schedule: Q04DX003 (ip), vehicle: Klucel (hydroxypropylcellulose) (HPC)
[7] = dose: 25.0 mg/kg/injection, schedule: Q01DX009 (ip), vehicle: saline
[8] = dose: 50.0 mg/kg/injection, schedule: Q01DX009 (ip), vehicle: saline
[9] = dose: 200.0 mg/kg/injection, schedule: Q01DX001 (ip), vehicle: Klucel (hydroxypropylcellulose) (HPC)
[10] = dose: 400.0 mg/kg/injection, schedule: Q01DX001 (ip), vehicle: Klucel (hydroxypropylcellulose) (HPC)
[11] = dose: 6.25 mg/kg/injection, schedule: Q01DX009 (ip), vehicle: saline
[12] = dose: 12.5 mg/kg/injection, schedule: Q01DX009 (ip), vehicle: saline

## CN=C(N)c1ccc(N=C(N)c2ccc(-c3ccc(C(N)=Nc4ccc(C(N)=NC)cc4)cc3)cc2)cc1
dose: 3.0 mg/kg/injection, schedule: Q04DX003 (ip), vehicle: saline
  T/C: 118 % of control
dose: 3.12 mg/kg/injection, schedule: Q01DX009 (ip), vehicle: saline
  T/C: 123 % of control
dose: 5.5 mg/kg/injection, schedule: Q01DX009 (ip), vehicle: saline
  T/C: 121 % of control
dose: 6.0 mg/kg/injection, schedule: Q04DX003 (ip), vehicle: saline
  T/C: 118 % of control
dose: 12.0 mg/kg/injection, schedule: Q04DX003 (ip), vehicle: saline
  T/C: 122 % of control
dose: 12.5 mg/kg/injection, schedule: Q04DX003 (ip), vehicle: saline
  T/C: 115 % of control
dose: 18.0 mg/kg/injection, schedule: Q01DX009 (ip), vehicle: saline
  T/C: 96 % of control

## O=Nc1ccc2ccccc2c1O
dose: 50.0 mg/kg/injection, schedule: Q01DX001 (ip), vehicle: Klucel (hydroxypropylcellulose) (HPC)
  T/C: 107 % of control
[1]
  T/C: 104 % of control

## CC1(C)c2ccccc2C(C)(C(Cl)(Cl)Cl)c2ccc(Cl)cc21 (stereo not drawn)
[2]
  T/C: 96 % of control
[3]
  T/C: 99 % of control
[4]
  T/C: 92 % of control
dose: 400.0 mg/kg/injection, schedule: Q01DX009 (ip), vehicle: saline with Tween-80
  T/C: 97 % of control

## N#C[SH2+].N#C[SH2+].N#C[SH2+].N#C[SH2+].[Cu+2].c1ccc(C[P+](c2ccccc2)(c2ccccc2)c2ccccc2)cc1
dose: 100.0 mg/kg/injection, schedule: Q01DX001 (ip), vehicle: saline with Tween-80
  T/C: 100 % of control

## C[C@@H]1C[C@@]2(C)[C@@H](CC[C@@H]3[C@@H]2CC[C@]2(C)[C@@H](OC4CCCCO4)CC[C@@H]32)CC1=O (stereo partly drawn)
dose: 25.0 mg/kg/injection, schedule: Q01DX009 (ip), vehicle: Klucel (hydroxypropylcellulose) (HPC)
  T/C: 88 % of control
dose: 50.0 mg/kg/injection, schedule: Q01DX009 (ip), vehicle: Klucel (hydroxypropylcellulose) (HPC)
  T/C: 92 % of control
dose: 100.0 mg/kg/injection, schedule: Q01DX009 (ip), vehicle: Klucel (hydroxypropylcellulose) (HPC)
  T/C: 88 % of control and 100 % of control
[5]
  T/C: 86 % of control and 91 % of control
dose: 200.0 mg/kg/injection, schedule: Q01DX009 (ip), vehicle: Klucel (hydroxypropylcellulose) (HPC)
  T/C: 87 % of control and 100 % of control
[6]
  T/C: 87 % of control and 95 % of control
dose: 400.0 mg/kg/injection, schedule: Q01DX009 (ip), vehicle: Klucel (hydroxypropylcellulose) (HPC)
  T/C: 105 % of control
dose: 400.0 mg/kg/injection, schedule: Q04DX003 (ip), vehicle: Klucel (hydroxypropylcellulose) (HPC)
  T/C: 90 % of control and 91 % of control

## COc1cc([C@@H]2c3cc4c(cc3[C@@H](OC3OC5CO[C@@H](c6cccs6)OC5C(O)C3O)[C@H]3COC(=O)[C@H]23)OCO4)cc(OC)c1O (stereo partly drawn)
dose: 0.25 mg/kg/injection, schedule: Q01DX010 (ip), vehicle: saline
  T/C: 166 % of control and 175 % of control
dose: 0.5 mg/kg/injection, schedule: Q01DX010 (ip), vehicle: saline
  T/C: 179 % of control and 183 % of control
dose: 1.0 mg/kg/injection, schedule: Q01DX010 (ip), vehicle: saline
  T/C: 166 % of control and 216 % of control
dose: 2.0 mg/kg/injection, schedule: Q01DX010 (ip), vehicle: saline
  T/C: 233 % of control and 250 % of control
dose: 2.88 mg/kg/injection, schedule: Q04DX003 (ip), vehicle: saline
  T/C: 300 % of control
dose: 3.24 mg/kg/injection, schedule: Q04DX003 (ip), vehicle: clinical formulation
  T/C: 327 % of control
dose: 4.0 mg/kg/injection, schedule: Q01DX010 (ip), vehicle: saline
  T/C: 100 % of control
dose: 4.8 mg/kg/injection, schedule: Q04DX003 (ip), vehicle: saline
  T/C: 596 % of control
dose: 5.4 mg/kg/injection, schedule: Q04DX003 (ip), vehicle: clinical formulation
  T/C: 557 % of control
dose: 8.0 mg/kg/injection, schedule: Q04DX003 (ip), vehicle: saline
  T/C: 378 % of control
dose: 9.0 mg/kg/injection, schedule: Q04DX003 (ip), vehicle: clinical formulation
  T/C: 557 % of control
dose: 13.33 mg/kg/injection, schedule: Q04DX003 (ip), vehicle: saline
  T/C: 240 % of control
dose: 15.0 mg/kg/injection, schedule: Q04DX003 (ip), vehicle: clinical formulation
  T/C: 558 % of control

## ClC(Cl)(Cl)c1cccc(C(Cl)(Cl)Cl)c1
[5]
  T/C: 115 % of control
[6]
  T/C: 120 % of control
dose: 266.0 mg/kg/injection, schedule: Q04DX003 (ip), vehicle: Klucel (hydroxypropylcellulose) (HPC)
  T/C: 90 % of control

## O=C(OC[P+](c1ccccc1)(c1ccccc1)c1ccccc1)c1ccccc1
dose: 3.13 mg/kg/injection, schedule: Q01DX009 (ip), vehicle: saline
  T/C: 112 % of control
[7]
  T/C: 122 % of control
[8]
  T/C: 91 % of control

## O=C(NC(Cc1ccccc1)C(=O)Oc1ccc(Cl)cc1)OCc1ccccc1 (stereo not drawn)
dose: 100.0 mg/kg/injection, schedule: Q04DX002 (ip), vehicle: saline with Tween-80
  T/C: 101 % of control
dose: 200.0 mg/kg/injection, schedule: Q04DX002 (ip), vehicle: saline with Tween-80
  T/C: 94 % of control
dose: 400.0 mg/kg/injection, schedule: Q04DX002 (ip), vehicle: saline with Tween-80
  T/C: 100 % of control and 91 % of control

## Cc1cc(C)cc(NCCC#N)c1
dose: 100.0 mg/kg/injection, schedule: Q01DX009 (ip), vehicle: other
  T/C: 115 % of control
dose: 200.0 mg/kg/injection, schedule: Q01DX009 (ip), vehicle: other
  T/C: 115 % of control
dose: 400.0 mg/kg/injection, schedule: Q01DX009 (ip), vehicle: other
  T/C: 105 % of control

## CC(=O)Nc1c2sscc-2n(C)c1=O
dose: 0.39 mg/kg/injection, schedule: Q01DX009 (ip), vehicle: saline with Tween-80
  T/C: 97 % of control
dose: 0.78 mg/kg/injection, schedule: Q01DX009 (ip), vehicle: saline with Tween-80
  T/C: 104 % of control

## Cc1cc2nc(Cc3nc4cc(C)c(C)cc4[nH]3)[nH]c2cc1C
dose: 100.0 mg/kg/injection, schedule: Q04DX003 (ip), vehicle: saline with Tween-80
  T/C: 95 % of control
dose: 200.0 mg/kg/injection, schedule: Q04DX003 (ip), vehicle: saline with Tween-80
  T/C: 90 % of control
dose: 400.0 mg/kg/injection, schedule: Q04DX003 (ip), vehicle: saline with Tween-80
  T/C: 95 % of control

## O=C(C(Br)C(Br)c1ccccc1)N1CCOCC1 (stereo not drawn)
dose: 100.0 mg/kg/injection, schedule: Q04DX003 (ip), vehicle: saline sonified
  T/C: 104 % of control
dose: 200.0 mg/kg/injection, schedule: Q04DX003 (ip), vehicle: saline sonified
  T/C: 100 % of control
dose: 400.0 mg/kg/injection, schedule: Q04DX003 (ip), vehicle: saline sonified
  T/C: 113 % of control

## CCOC(=O)c1c(C)[nH]c(C)c1-c1ccccc1
[1]
  T/C: 109 % of control
[9]
  T/C: 109 % of control
[10]
  T/C: 109 % of control

## OCCN1CCN(CC/C=C2\c3ccccc3Sc3ccc(Cl)cc32)CC1
[11]
  T/C: 114 % of control
[12]
  T/C: 114 % of control

## COc1ccc(CN(C)CCN(C)CCN(C)Cc2ccc(OC)cc2)cc1
dose: 3.12 mg/kg/injection, schedule: Q01DX009 (ip), vehicle: water
  T/C: 92 % of control
[11]
  T/C: 102 % of control
dose: 6.25 mg/kg/injection, schedule: Q01DX009 (ip), vehicle: water
  T/C: 108 % of control
[12]
  T/C: 103 % of control
dose: 12.5 mg/kg/injection, schedule: Q01DX009 (ip), vehicle: water
  T/C: 99 % of control
[7]
  T/C: 93 % of control
dose: 25.0 mg/kg/injection, schedule: Q01DX009 (ip), vehicle: water
  T/C: 100 % of control
dose: 25.0 mg/kg/injection, schedule: Q04DX003 (ip), vehicle: water
  T/C: 90 % of control
[8]
  T/C: 86 % of control
dose: 50.0 mg/kg/injection, schedule: Q01DX009 (ip), vehicle: water
  T/C: 106 % of control
dose: 50.0 mg/kg/injection, schedule: Q04DX003 (ip), vehicle: water
  T/C: 99 % of control
dose: 100.0 mg/kg/injection, schedule: Q04DX003 (ip), vehicle: water
  T/C: 96 % of control

## O=C(Nc1cccc(Cl)c1)N1c2ccccc2SC1c1ccco1 (stereo not drawn)
[2]
  T/C: 91 % of control
[3]
  T/C: 107 % of control
[4]
  T/C: 109 % of control

## Nc1nc(C(F)(F)F)c(CCCCc2ccccc2)c(=O)[nH]1
[1]
  T/C: 111 % of control
[9]
  T/C: 117 % of control
[10]
  T/C: 98 % of control
